From patent US20230073777A1, “CYCLIC-AMP RESPONSE ELEMENT BINDING PROTEIN (CBP) AND/OR ADENOVIRAL E1A BINDING PROTEIN OF 300 KDA (P300) DEGRADATION COMPOUNDS AND METHODS OF USE” (CULLGEN (SHANGHAI), INC., priority 2019, published 2023)
Where two headings read alike, the source gives them in different places.

Experiments:
LNCaP cells = experiment: LNCaP cell viability assay (CellTiter-Glo); assay type: cell-based; settings: Homo sapiens, 72 h; LNCaP prostate cancer cell viability inhibition, 3 days, CellTiter-Glo (Table 3)
Summary of the method: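 Three-day treatment of LNCaP cells (5000 per well) across a 12-point, 3-fold dilution series starting at 10 μM. ATP luminescence (CellTiter-Glo) relative to untreated controls gave dose-response curves fitted nonlinearly for IC50.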

P300 = P300 (Homo sapiens, UniProt Q09472); experiment: Immunoblotting of P300 protein levels in LNCaP or 22RV1 cells; assay type: cell-based; parameters: LNCaP or 22RV1 cells that express CBP/P300 proteins were treated with GNE-781 or the bivalent compounds; endogenous in cells; host or cells: LNCaP (clone FGC) or 22RV1 cells; settings: read-out: Degradation (10 nM)
Summary of the method: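 P300/CBP levels quantified by chemiluminescent immunoblot band densitometry, normalized against tubulin or vinculin loading controls. Lysates came from LNCaP or 22RV1 cells exposed to compounds or DMSO vehicle for indicated times.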

[1] = percentage of inhibition of p300 at 10 nM (Table 3)

P300, sequence (Q09472 whole entry): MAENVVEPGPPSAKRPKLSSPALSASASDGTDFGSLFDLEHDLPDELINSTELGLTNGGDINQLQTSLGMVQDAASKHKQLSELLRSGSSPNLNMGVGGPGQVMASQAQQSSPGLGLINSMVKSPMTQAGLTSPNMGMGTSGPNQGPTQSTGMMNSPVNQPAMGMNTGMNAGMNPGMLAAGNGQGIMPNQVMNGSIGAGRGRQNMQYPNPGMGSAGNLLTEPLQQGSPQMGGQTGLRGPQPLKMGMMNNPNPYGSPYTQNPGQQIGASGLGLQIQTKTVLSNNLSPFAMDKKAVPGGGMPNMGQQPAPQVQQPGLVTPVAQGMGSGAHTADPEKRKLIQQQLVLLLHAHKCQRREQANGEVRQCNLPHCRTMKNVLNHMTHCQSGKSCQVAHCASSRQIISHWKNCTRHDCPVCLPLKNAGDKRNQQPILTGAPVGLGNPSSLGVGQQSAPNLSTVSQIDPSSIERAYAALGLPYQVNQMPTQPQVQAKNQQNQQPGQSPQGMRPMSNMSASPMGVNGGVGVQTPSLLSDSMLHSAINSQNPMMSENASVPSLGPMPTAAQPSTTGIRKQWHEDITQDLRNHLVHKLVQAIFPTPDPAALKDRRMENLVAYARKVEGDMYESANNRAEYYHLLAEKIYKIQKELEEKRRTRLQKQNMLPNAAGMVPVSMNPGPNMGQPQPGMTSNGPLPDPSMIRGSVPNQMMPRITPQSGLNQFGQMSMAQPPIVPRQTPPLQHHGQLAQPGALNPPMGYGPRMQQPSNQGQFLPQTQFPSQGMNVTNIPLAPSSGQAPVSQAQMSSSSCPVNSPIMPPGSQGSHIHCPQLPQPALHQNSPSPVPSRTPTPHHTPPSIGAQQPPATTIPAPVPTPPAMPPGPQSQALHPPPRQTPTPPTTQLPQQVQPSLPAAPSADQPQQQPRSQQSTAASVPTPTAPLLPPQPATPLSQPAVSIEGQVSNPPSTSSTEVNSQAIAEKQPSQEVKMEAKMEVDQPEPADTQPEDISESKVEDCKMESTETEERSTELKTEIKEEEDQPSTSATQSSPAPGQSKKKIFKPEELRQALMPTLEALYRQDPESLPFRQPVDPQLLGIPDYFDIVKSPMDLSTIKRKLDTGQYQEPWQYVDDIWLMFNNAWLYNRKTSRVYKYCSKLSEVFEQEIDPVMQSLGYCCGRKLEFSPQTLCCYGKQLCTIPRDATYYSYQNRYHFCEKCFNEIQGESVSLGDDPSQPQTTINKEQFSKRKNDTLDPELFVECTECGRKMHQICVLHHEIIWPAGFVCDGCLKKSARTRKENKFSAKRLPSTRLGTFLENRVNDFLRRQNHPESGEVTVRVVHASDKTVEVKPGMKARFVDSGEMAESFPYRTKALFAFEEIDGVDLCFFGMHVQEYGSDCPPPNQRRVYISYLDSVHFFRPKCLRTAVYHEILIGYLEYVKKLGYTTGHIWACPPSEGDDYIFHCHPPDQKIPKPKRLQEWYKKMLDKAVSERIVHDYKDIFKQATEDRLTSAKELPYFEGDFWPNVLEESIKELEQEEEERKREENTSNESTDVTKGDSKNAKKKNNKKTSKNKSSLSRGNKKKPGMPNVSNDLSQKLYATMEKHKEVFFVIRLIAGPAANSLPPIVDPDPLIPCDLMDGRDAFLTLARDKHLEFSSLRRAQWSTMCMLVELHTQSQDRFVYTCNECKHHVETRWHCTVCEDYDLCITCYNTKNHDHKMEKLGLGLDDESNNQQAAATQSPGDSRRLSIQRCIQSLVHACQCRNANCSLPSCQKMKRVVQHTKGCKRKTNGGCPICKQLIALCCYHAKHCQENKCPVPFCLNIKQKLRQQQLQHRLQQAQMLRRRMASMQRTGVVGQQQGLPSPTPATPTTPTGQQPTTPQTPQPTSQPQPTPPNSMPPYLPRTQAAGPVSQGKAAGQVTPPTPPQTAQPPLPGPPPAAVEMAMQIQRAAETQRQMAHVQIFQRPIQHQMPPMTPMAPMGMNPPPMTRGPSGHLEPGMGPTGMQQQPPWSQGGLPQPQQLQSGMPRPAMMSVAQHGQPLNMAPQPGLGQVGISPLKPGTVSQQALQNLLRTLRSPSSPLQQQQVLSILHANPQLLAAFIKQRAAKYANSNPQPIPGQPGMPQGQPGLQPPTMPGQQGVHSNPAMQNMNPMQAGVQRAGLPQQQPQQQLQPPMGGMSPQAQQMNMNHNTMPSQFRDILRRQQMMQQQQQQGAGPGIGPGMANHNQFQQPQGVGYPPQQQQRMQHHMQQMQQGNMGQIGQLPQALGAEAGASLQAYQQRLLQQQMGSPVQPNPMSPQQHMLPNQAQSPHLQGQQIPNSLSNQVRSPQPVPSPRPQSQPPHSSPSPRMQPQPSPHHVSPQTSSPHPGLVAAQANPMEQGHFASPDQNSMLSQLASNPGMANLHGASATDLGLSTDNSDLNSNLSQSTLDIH

IC50 (LNCaP cells)	inhibition at 0.01 µM (P300; [1])	SMILES	inhibition at 0.01 µM (P300)
67.7 nM	20 to 50%	CNC(=O)N1CCc2c(c(N3CCCc4cc(-c5cnn(C)c5)c(C(F)F)cc43)nn2C2CCN(C(=O)CCCCCNc3cccc4c3CN(C3CCC(=O)NC3=O)C4=O)CC2)C1 (centres unmarked) [P-095, 3-(7-(Difluoromethyl)-6-(1-methyl-1H-pyrazol-4-yl)-3,4-dihydroquinolin-1(2H)-yl)-1-(1-(6-((2-(2,6-dioxopiperidin-3-yl)-1-oxoisoindolin-4-yl)amino)hexanoyl)piperidin-4-yl)-N-methyl-1,4,6,7-tetrahydro-5H-pyrazolo[4,3-c]pyridine-5-carboxamide]	–
26.6 nM	> 80%	CNC(=O)N1CCc2c(c(N3CCCc4cc(-c5cnn(C)c5)c(C(F)F)cc43)nn2C2CCN(C(=O)CCCCCNc3cccc4c3C(=O)N(C3CCC(=O)NC3=O)C4)CC2)C1 (centres unmarked) [P-096, 3-(7-(difluoromethyl)-6-(1-methyl-1H-pyrazol-4-yl)-3,4-dihydroquinolin-1(2H)-yl)-1-(1-(6-((2-(2,6-dioxopiperidin-3-yl)-3-oxoisoindolin-4-yl)amino)hexanoyl)piperidin-4-yl)-N-methyl-1,4,6,7-tetrahydro-5H-pyrazolo[4,3-c]pyridine-5-carboxamide]	–
49 nM	> 80%	CNC(=O)N1CCc2c(c(N3CCCc4cc(-c5cnn(C)c5)c(C(F)F)cc43)nn2C2CCN(CCCCCCCc3cccc4c3C(=O)N(C3CCC(=O)NC3=O)C4=O)CC2)C1 (centres unmarked) [P-097, 3-(7-(difluoromethyl)-6-(1-methyl-1H-pyrazol-4-yl)-3,4-dihydroquinolin-1(2H)-yl)-1-(1-(7-(2-(2,6-dioxopiperidin-3-yl)-1,3-dioxoisoindolin-4-yl)heptyl)piperidin-4-yl)-N-methyl-1,4,6,7-tetrahydro-5H-pyrazolo[4,3-c]pyridine-5-carboxamide]	–
14.9 nM	50 to 80%	CNC(=O)N1CCc2c(c(N3CCCc4cc(-c5cnn(C)c5)c(C(F)F)cc43)nn2C2CCN(C(=O)CN3CCC(CNc4cccc5c4C(=O)N(C4CCC(=O)NC4=O)C5=O)CC3)CC2)C1 (centres unmarked) [P-102]	–
12.1 nM	> 80%	CNC(=O)N1CCc2c(c(N3CCCc4cc(-c5cnn(C)c5)c(C(F)F)cc43)nn2C2CCN(C(=O)CN3CCC(CCc4cccc5c4C(=O)N(C4CCC(=O)NC4=O)C5=O)CC3)CC2)C1 (centres unmarked) [P-104, 3-(7-(difluoromethyl)-6-(1-methyl-1H-pyrazol-4-yl)-3,4-dihydroquinolin-1(2H)-yl)-1-(1-(2-(4-(2-(2-(2,6-dioxopiperidin-3-yl)-1,3-dioxoisoindolin-4-yl)ethyl)piperidin-1-yl)acetyl)piperidin-4-yl)-N-methyl-1,4,6,7-tetrahydro-5H-pyrazolo[4,3-c]pyridine-5-carboxamide]	–
44.5 nM	50 to 80%	CNC(=O)N1CCc2c(c(N3CCCc4cc(-c5cnn(C)c5)c(C(F)F)cc43)nn2C2CCN(C(=O)CCCCCn3c(=O)n(C4CCC(=O)NC4=O)c4ccccc43)CC2)C1 (centres unmarked) [P-105, 3-(7-(Difluoromethyl)-6-(1-methyl-1H-pyrazol-4-yl)-3,4-dihydroquinolin-1(2H)-yl)-1-(1-(6-(3-(2,6-dioxopiperidin-3-yl)-2-oxo-2,3-dihydro-1H-benzo[d]imidazol-1-yl)hexanoyl)piperidin-4-yl)-N-methyl-1,4,6,7-tetrahydro-5H-pyrazolo[4,3-c]pyridine-5-carboxamide]	–
16.5 nM	50 to 80%	CC(=O)N1CCc2c(c(N3CCCc4cc(-c5cnn(C)c5)c(C(F)F)cc43)nn2C2CCN(C(=O)CCCCCCn3c(=O)n(C4CCC(=O)NC4=O)c4ccccc43)CC2)C1 (centres unmarked) [P-108, 3-(3-(7-(4-(5-Acetyl-3-(7-(difluoromethyl)-6-(1-methyl-1H-pyrazol-4-yl)-3,4-dihydroquinolin-1(2H)-yl)-4,5,6,7-tetrahydro-1H-pyrazolo[4,3-c]pyridin-1-yl)piperidin-1-yl)-7-oxoheptyl)-2-oxo-2,3-dihydro-1H-benzo[d]imidazol-1-yl)piperidine-2,6-dione]	–
12.9 nM	> 80%	CNC(=O)N1CCc2c(c(N3CCCc4cc(-c5cnn(C)c5)c(C(F)F)cc43)nn2C2CCN(C(=O)CCCCCNc3cccc4c3n(C)c(=O)n4C3CCC(=O)NC3=O)CC2)C1 (centres unmarked) [P-109, 3-(7-(difluoromethyl)-6-(1-methyl-1H-pyrazol-4-yl)-3,4-dihydroquinolin-1(2H)-yl)-1-(1-(6-((1-(2,6-dioxopiperidin-3-yl)-3-methyl-2-oxo-2,3-dihydro-1H-benzo[d]imidazol-4-yl)amino)hexanoyl)piperidin-4-yl)-N-methyl-1,4,6,7-tetrahydro-5H-pyrazolo[4,3-c]pyridine-5-carboxamide]	–
31.1 nM	> 80%	CC(=O)N1CCc2c(c(N3CCCc4cc(-c5cnn(C)c5)c(C(F)F)cc43)nn2C2CCN(C(=O)CCCCCNc3cccc4c3n(C)c(=O)n4C3CCC(=O)NC3=O)CC2)C1 (centres unmarked) [P-110, 3-(4-((6-(4-(5-acetyl-3-(7-(difluoromethyl)-6-(1-methyl-1H-pyrazol-4-yl)-3,4-dihydroquinolin-1(2H)-yl)-4,5,6,7-tetrahydro-1H-pyrazolo[4,3-c]pyridin-1-yl)piperidin-1-yl)-6-oxohexyl)amino)-3-methyl-2-oxo-2,3-dihydro-1H-benzo[d]imidazol-1-yl)piperidine-2,6-dione]	–
7.6 nM	> 80%	CC(=O)N1CCc2c(c(N3CCCc4cc(-c5cnn(C)c5)c(C(F)F)cc43)nn2C2CCN(C(=O)CCCCCCNc3cccc4c3n(C)c(=O)n4C3CCC(=O)NC3=O)CC2)C1 (centres unmarked) [P-111, 3-(4-((7-(4-(5-acetyl-3-(7-(difluoromethyl)-6-(1-methyl-1H-pyrazol-4-yl)-3,4-dihydroquinolin-1(2H)-yl)-4,5,6,7-tetrahydro-1H-pyrazolo[4,3-c]pyridin-1-yl)piperidin-1-yl)-7-oxoheptyl)amino)-3-methyl-2-oxo-2,3-dihydro-1H-benzo[d]imidazol-1-yl)piperidine-2,6-dione]	–
2.1 nM	> 80%	CC(=O)N1CCc2c(c(N3CCCc4cc(-c5cnn(C)c5)c(C(F)F)cc43)nn2C2CCN(CCCCCCNc3cccc4c3C(=O)N(C3CCC(=O)NC3=O)C4=O)CC2)C1 (centres unmarked) [P-112, 4-((6-(4-(5-acetyl-3-(7-(difluoromethyl)-6-(1-methyl-1H-pyrazol-4-yl)-3,4-dihydroquinolin-1(2H)-yl)-4,5,6,7-tetrahydro-1H-pyrazolo[4,3-c]pyridin-1-yl)piperidin-1-yl)hexyl)amino)-2-(2,6-dioxopiperidin-3-yl)isoindoline-1,3-dione]	–
14.8 nM	> 80%	CC(=O)N1CCc2c(c(N3CCCc4cc(-c5cnn(C)c5)c(C(F)F)cc43)nn2C2CCN(CCCCCCOc3cccc4c3C(=O)N(C3CCC(=O)NC3=O)C4=O)CC2)C1 (centres unmarked) [P-113, 4-((6-(4-(5-acetyl-3-(7-(difluoromethyl)-6-(1-methyl-1H-pyrazol-4-yl)-3,4-dihydroquinolin-1(2H)-yl)-4,5,6,7-tetrahydro-1H-pyrazolo[4,3-c]pyridin-1-yl)piperidin-1-yl)hexyl)oxy)-2-(2,6-dioxopiperidin-3-yl)isoindoline-1,3-dione]	–
877 nM	20 to 50%	CNC(=O)N1CCc2c(c(N3CCCc4cc(-c5cnn(C)c5)c(C(F)F)cc43)nn2C2CCN(C(=O)CCCCCCNc3cccc4c3n(C)c(=O)n4C3CCC(=O)NC3=O)CC2)C1 (centres unmarked) [P-114, 3-(7-(Difluoromethyl)-6-(1-methyl-1H-pyrazol-4-yl)-3,4-dihydroquinolin-1(2H)-yl)-1-(1-(7-((1-(2,6-dioxopiperidin-3-yl)-3-methyl-2-oxo-2,3-dihydro-1H-benzo[d]imidazol-4-yl)amino)heptanoyl)piperidin-4-yl)-N-methyl-1,4,6,7-tetrahydro-5H-pyrazolo[4,3-c]pyridine-5-carboxamide]	–
7.1 nM	> 80%	CNC(=O)N1CCc2c(c(N3CCCc4cc(-c5cnn(C)c5)c(C(F)F)cc43)nn2C2CCN(C(=O)CCCCCNc3ccc4c(c3)n(C)c(=O)n4C3CCC(=O)NC3=O)CC2)C1 (centres unmarked) [P-115, 3-(7-(difluoromethyl)-6-(1-methyl-1H-pyrazol-4-yl)-3,4-dihydroquinolin-1(2H)-yl)-1-(1-(6-((1-(2,6-dioxopiperidin-3-yl)-3-methyl-2-oxo-2,3-dihydro-1H-benzo[d]imidazol-5-yl)amino)hexanoyl)piperidin-4-yl)-N-methyl-1,4,6,7-tetrahydro-5H-pyrazolo[4,3-c]pyridine-5-carboxamide]	–

SMILES	IC50 (LNCaP cells)	inhibition at 0.01 µM (P300; [1])	inhibition at 0.01 µM (P300)
CNC(=O)N1CCc2c(c(N3CCCc4cc(-c5cnn(C)c5)c(C(F)F)cc43)nn2C2CCN(C(=O)CCCCCCn3c(=O)n(C4CCC(=O)NC4=O)c4ccccc43)CC2)C1 (centres unmarked) [P-106, 3-(7-(difluoromethyl)-6-(1-methyl-1H-pyrazol-4-yl)-3,4-dihydroquinolin-1(2H)-yl)-1-(1-(7-(3-(2,6-dioxopiperidin-3-yl)-2-oxo-2,3-dihydro-1H-benzo[d]imidazol-1-yl)heptanoyl)piperidin-4-yl)-N-methyl-1,4,6,7-tetrahydro-5H-pyrazolo[4,3-c]pyridine-5-carboxamide]	24.2 nM	–	50 to 80%
CC(=O)N1CCc2c(c(N3CCCc4cc(-c5cnn(C)c5)c(C(F)F)cc43)nn2C2CCN(C(=O)CCCCCn3c(=O)n(C4CCC(=O)NC4=O)c4ccccc43)CC2)C1 (centres unmarked) [P-107, 3-(3-(6-(4-(5-Acetyl-3-(7-(difluoromethyl)-6-(1-methyl-1H-pyrazol-4-yl)-3,4-dihydroquinolin-1(2H)-yl)-4,5,6,7-tetrahydro-1H-pyrazolo[4,3-c]pyridin-1-yl)piperidin-1-yl)-6-oxohexyl)-2-oxo-2,3-dihydro-1H-benzo[d]imidazol-1-yl)piperidine-2,6-dione]	20.4 nM	–	50 to 80%
